Reference: patent US6469004B1, “Benzoheterocycles and their uses as MEK inhibitors” (Warner-Lambert Company, priority 1999, dated 2002)
Counter-ions that a name gives are not always drawn. Like-named read-outs stand apart in the source and are kept apart here.

Tests used:
[1] = target: GST-MEK (p45MEK) / GST-MAPK (p44MAP kinase) cascade (APK) (Homo sapiens, UniProt Q02750); test: APK IC50 (cascade assay for inhibitors of the MAP kinase pathway); type: biochemical
Method: Cascade Assay for Inhibitors of the MAP Kinase Pathway
Incorporation of ^32P into myelin basic protein (MBP) is assayed in the presence of a glutathione S-transferase fusion protein containing p44MAP kinase (GST-MAPK) and a glutathione S-transferase fusion protein containing p45MEK (GST-MEK). The assay solution contains 20 mM HEPES, pH 7.4, 10 mM MgCl2, 1 mM EGTA, 50 μM [γ-^32P]ATP, 10 μg GST-MEK, 0.5 μg GST-MAPK and 40 μg MBP in a final volume of 100 μL. Reactions are stopped after 20 minutes by addition of trichloroacetic acid and filtered through a GFIC filter mat. ^32P retained on the filter mat is determined using a 120S Betaplate. Compounds are assessed at 10 μM for ability to inhibit incorporation of 32P.
To ascertain whether compounds are inhibiting GST-MEK or GST MAPK, two additional protocols are employed. In the first protocol, compounds are added to tubes containing GST-MEK, followed by addition of GST-MAPK, MBP and [γ-^32P]ATP. In the second protocol, compounds are added to tubes containing both GST-MEK and GST-MAPK, followed by MBP and [γ-^32P]ATP.
Compounds that show activity in both protocols are scored as MAPK inhibitors, while compounds showing activity in only the first protocol are scored as MEK inhibitors.

colon 26 cells = colon 26 cells IC50 (whole cell assay); type: cell-based; details: Mus musculus
Method: Whole Cell MAP Kinase Assay
To determine if compounds block activation of MAP kinase in whole cells, the following protocol is used. Cells are plated in multi-well plates and grown to confluence. Cells are serum-deprived overnight. […] After a 5-minute treatment with the growth factor, cells are washed with PBS, and lysed in a buffer consisting of 70 mM NaCl, 10 mM HEPES (pH 7.4), 50 mM glycerol phosphate, and 1% Triton X-100. Lysates are clarified by centrifugation at 13,000×g for 10 minutes. Five to fifteen micrograms of protein from the resulting supernatants are subjected to SDS/PAGE and Western blotting for phosphorylated MAP kinase levels.

Sequence of GST-MEK (p45MEK) / GST-MAPK (p44MAP kinase) cascade (APK) (Q02750 whole entry): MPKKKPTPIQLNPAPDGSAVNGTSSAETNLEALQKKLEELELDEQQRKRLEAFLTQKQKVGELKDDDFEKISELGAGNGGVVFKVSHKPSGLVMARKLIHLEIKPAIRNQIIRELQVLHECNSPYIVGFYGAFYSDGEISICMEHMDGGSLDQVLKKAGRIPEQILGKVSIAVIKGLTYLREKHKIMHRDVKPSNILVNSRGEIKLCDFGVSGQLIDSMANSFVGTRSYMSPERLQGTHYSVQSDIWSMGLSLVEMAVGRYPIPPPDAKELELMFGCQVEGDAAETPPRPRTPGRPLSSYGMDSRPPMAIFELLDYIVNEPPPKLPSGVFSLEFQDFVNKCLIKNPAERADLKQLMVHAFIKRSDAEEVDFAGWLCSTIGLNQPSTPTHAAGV

Row | Structure (SMILES) | IC50 [1] | melting point | IC50 (colon 26 cells; read-out: colon 26 cells, IC50) | IC50 (colon 26 cells; read-out: Colon 26 Cells, 1 Hour Pretreatment, IC50)
1 | Cc1cc(I)ccc1Nc1c(C(=O)Oc2c(F)c(F)c(F)c(F)c2F)cc2nc[nH]c2c1F [PD 254551, 7-fluoro-6-(4-iodo-2-methyl-phenylamino)-1H-benzoimidazole-5-carboxylic acid pentafluorophenyl ester] | 120 nM | – | – | –
2 | Cc1cc(I)ccc1Nc1c(C(=O)NOCC2CC2)cc2nc[nH]c2c1F (as salt: salt) [PD 254552, 7-fluoro-6-(4-iodo-2-methyl-phenylamino)-1H-benzoimidazole-5-carboxylic acid cyclopropylmethoxy-amide] | – | 168 to 172 °C | – | –
3 | Cc1cc(I)ccc1Nc1c(C(=O)O)cc2nc[nH]c2c1F [PD 205293, 7-fluoro-6-(4-iodo-2-methyl-phenylamino)-1H-benzoimidazole-5-carboxylic acid] | – | 247 to 248 °C (dec.) | > 10000 nM | –
4 | Cc1cc(I)ccc1Nc1c(C(=O)NOCC2CC2)cc2nc[nH]c2c1F [PD 254552, 7-fluoro-6-(4-iodo-2-methyl-phenylamino)-1H-benzoimidazole-5-carboxylic acid cyclopropylmethoxy-amide] | < 10 nM | – | – | 20 nM
